Source: patent EP4578939A1, “MYC[…]. BASED ON VARIOUS CARBON-NITROGEN METABOLIC […], METHOD FOR ISOLATING SAME, AND USE THEREOF” (Peng, Guanghao, priority 2022, dated 2024)
Where two headings read alike, the source gives them in different places.

System: strain YT
Experiment: inhibition of nitrification inhibitors on nitrification activity and growth
Type: cell-based, Mycobacterium sp.
Settings: for inhibition at 5000 µM: Mycobacterium; for effect on growth of strain YT: pure culture with two nitrogen sources; for effect on nitrification activity of strain YT: pure culture
Description: The nitrogen contents of the two nitrogen sources were equal in a modified Stephenson medium with (NH4)2SO4 as a nitrogen source (NH4)2SO4 content was 2.0g/L) and a modified Stephenson medium with L-arginine hydrochloride (C6H14N4O2•HCl) as a nitrogen source (C6H14N4O2•HCl content was 1.6 g/L).
When sodium pyruvate was added as a carbon source in the design of a culture medium, 1.0M sodium pyruvate solution (the concentration was calculated in terms of pyruvic acid) was prepared firstly, the pH was adjusted to the range of 7.0-7.2, and the solution was sterilized separately for later use. Before use, 1ml of 1.0M sodium pyruvate solution was added to about 100ml of modified Stevenson culture medium with (NH4)2SO4 as a nitrogen source or L-arginine hydrochloride (C6H14N4O2•HCl) as a nitrogen source, and the pyruvic acid concentration of the culture system was designed to be 0.01M.
Four kinds of nitrification inhibitors 4-amino-1,2,4-triazole (ATC), dicyandiamide (DCD, C2H4N4), aminoguanidine hydrochloride (CH6N4•HCl), and guanylthiourea (C2H6N4S) were selected. The four nitrification inhibitors were prepared with a concentration of 500mM, respectively, after the solutions were filtered and sterilized, 1ml of the four nitrification inhibitors with a concentration of 500mM was added into the two medium with different nitrogen sources, such that the corresponding concentration of each of the nitrification inhibitors in the systems was 5 mM.
Two mediums with different nitrogen sources were respectively subjected to 5 treatments, namely without addition of an inhibitor, adding ATC, adding DCD, adding aminoguanidine hydrochloride, and adding guanylthiourea as shown in the table below; the YT system without addition of an inhibitor and the system without inoculation of strain YT and only addition of an inhibitor were respectively used as a control group; 1ml of PBS-YT bacterial liquid was inoculated, and 1ml of sterile water was used as a substitute when the inoculation of a bacterial strain was not performed. The total volume of each culture system was equal, it was about 100 ml.
1.5 Culture conditions: the culture was performed in a shaking table with a rotational speed of 180rpm at 28°C.
1.6 Measurement and calculation of indicator: the growth OD600 and pH value of thallus in the culture solution were measured every week, the contents of NH4^+-N, NO2^--N and NOx^--N were measured, the inhibition effect of the nitric oxide synthase (nitrification) activity of different culture systems were calculated and compared.
Nitric oxide synthase (nitrification) inhibition rate (%) = (NO2^--NYT concentration - NO2^--Nculture system added with an inhibitor concentration) ×100/ NO2^--NYT concentration

[1] = 168 h, strain YT, L-arginine hydrochloride, inhibitor 5 mM, Culture 7 days (Table 13e), read-out: Nitric oxide synthase (nitrification) activity inhibition rate (%)
[2] = 336 h, strain YT, L-arginine hydrochloride, inhibitor 5 mM, Culture 14 days (Table 13e), read-out: Nitric oxide synthase (nitrification) activity inhibition rate (%)
[3] = 480 h, strain YT, L-arginine hydrochloride, inhibitor 5 mM, Culture 20 days, read-out: Nitric oxide synthase (nitrification) activity inhibition rate (%)
[4] = strain YT, L-arginine hydrochloride, inhibitor 5 mM, Culture 31 days, read-out: Nitric oxide synthase (nitrification) activity inhibition rate (%)
[5] = strain YT, L-arginine hydrochloride as nitrogen source, inhibitor 5 mM, 7 days (Table 13c)
[6] = strain YT, L-arginine hydrochloride as nitrogen source, inhibitor 5 mM, 14 days (Table 13c)
[7] = strain YT, L-arginine hydrochloride as nitrogen source, inhibitor 5 mM, 20 days
[8] = strain YT, L-arginine hydrochloride as nitrogen source, inhibitor 5 mM, 31 days
[9] = strain YT, ammonium sulfate as nitrogen source, inhibitor 5 mM, 7 days (Table 13c)
[10] = strain YT, ammonium sulfate as nitrogen source, inhibitor 5 mM, 14 days (Table 13c)
[11] = strain YT, ammonium sulfate as nitrogen source, inhibitor 5 mM, 20 days
[12] = strain YT, ammonium sulfate as nitrogen source, inhibitor 5 mM, 31 days

`Nn1cnnc1` [ATC, 4-amino-1,2,4-triazole] gave an inhibition at 5000 µM (168 h, read-out: Nitric oxide synthase (nitrification) activity inhibition rate (%), strain YT, Ammonium sulfate, inhibitor 5 mM, Culture 7 days (Table 13e)) of 100%, an inhibition at 5000 µM [1] of 100% and an inhibition at 5000 µM (336 h, read-out: Nitric oxide synthase (nitrification) activity inhibition rate (%), strain YT, Ammonium sulfate, inhibitor 5 mM, Culture 14 days (Table 13e)) of 80%. For the same compound, the inhibition at 5000 µM [2] was 98.6%, the inhibition at 5000 µM (480 h, read-out: Nitric oxide synthase (nitrification) activity inhibition rate (%), strain YT, Ammonium sulfate, inhibitor 5 mM, Culture 20 days) was 89.4% and the inhibition at 5000 µM [3] was 99.8%. For the same compound, the inhibition at 5000 µM (read-out: Nitric oxide synthase (nitrification) activity inhibition rate (%), strain YT, Ammonium sulfate, inhibitor 5 mM, Culture 31 days) was 25.4%, the inhibition at 5000 µM [4] was 99.8% and the “effect on growth of strain YT” value (inhibitor 5 mM) was “did not inhibit the growth”. The “effect on nitrification activity of strain YT” value (inhibitor 5 mM) was “always exhibited the inhibiting effect”, the “NH4^+-N” value [5] was 15 and the “NO2^--N” value [5] was 0. The OD600 [5] was 0.403, the “NH4^+-N” value [6] was 89 and the “NO2^--N” value [6] was 0.5. The OD600 [6] was 0.394, the “NH4^+-N” value [7] was 130 and the “NO2^--N” value [7] was 0.37. The OD600 [7] was 0.329, the “NH4^+-N” value [8] was 111 and the “NO2^--N” value [8] was 0.33. For the same compound, the OD600 [8] was 0.252, the “NH4^+-N” value [9] was 419 and the “NO2^--N” value [9] was 0. For the same compound, the OD600 [9] was 0.214, the “NH4^+-N” value [10] was 410 and the “NO2^--N” value [10] was 0.50. The OD600 [10] was 0.127, the “NH4^+-N” value [11] was 366 and the “NO2^--N” value [11] was 0.5. For the same compound, the OD600 [11] was 0.133, the “NH4^+-N” value [12] was 382 and the “NO2^--N” value [12] was 1.17. It also gave an OD600 [12] of 0.146.
Work on `N#CN=C(N)N` [DCD, dicyandiamide] yielded an inhibition at 5000 µM (168 h, strain YT, Ammonium sulfate, inhibitor 5 mM, Culture 7 days (Table 13e), read-out: Nitric oxide synthase (nitrification) activity inhibition rate (%)) of 0%, an inhibition at 5000 µM [1] of 0% and an inhibition at 5000 µM (336 h, strain YT, Ammonium sulfate, inhibitor 5 mM, Culture 14 days (Table 13e), read-out: Nitric oxide synthase (nitrification) activity inhibition rate (%)) of 0%. For the same compound, the inhibition at 5000 µM [2] was 7.14%, the inhibition at 5000 µM (480 h, strain YT, Ammonium sulfate, inhibitor 5 mM, Culture 20 days, read-out: Nitric oxide synthase (nitrification) activity inhibition rate (%)) was 32.4% and the inhibition at 5000 µM [3] was 0.72%. The inhibition at 5000 µM (strain YT, Ammonium sulfate, inhibitor 5 mM, Culture 31 days, read-out: Nitric oxide synthase (nitrification) activity inhibition rate (%)) was 8.62%, the inhibition at 5000 µM [4] was 0% and the “effect on growth of strain YT” value (inhibitor 5 mM) was “did not inhibit the growth”. For the same compound, the “effect on nitrification activity of strain YT” value (inhibitor 5 mM) was “did not impose an inhibitory effect”, the “NH4^+-N” value [5] was 18 and the “NO2^--N” value [5] was 0.50. The OD600 [5] was 0.397, the “NH4^+-N” value [6] was 121 and the “NO2^--N” value [6] was 32.5. The OD600 [6] was 0.438, the “NH4^+-N” value [7] was 191 and the “NO2^--N” value [7] was 152.77. The OD600 [7] was 0.415, the “NH4^+-N” value [8] was 173 and the “NO2^--N” value [8] was 153.87. The OD600 [8] was 0.378, the “NH4^+-N” value [9] was 421 and the “NO2^--N” value [9] was 1.00. The OD600 [9] was 0.207, the “NH4^+-N” value [10] was 408 and the “NO2^--N” value [10] was 2.50. For the same compound, the OD600 [10] was 0.121, the “NH4^+-N” value [11] was 355 and the “NO2^--N” value [11] was 3.20. The OD600 [11] was 0.127, the “NH4^+-N” value [12] was 382 and the “NO2^--N” value [12] was 5.11. It also gave an OD600 [12] of 0.128.
